Test results: patent US10106577B2, “Agonists of neurotrophin receptors and their use as medicaments” (BIONURE FARMA, S.L., priority 2010, dated 2018)
“Also recorded” adds a separate entry of the source.

Key:
NSC-34 cells = test: In vitro model of ALS, serum deprivation of motoneuron-like cells (MTT); format: cell-based, mouse; details: for neuroprotection on motorneurons challenged with serum deprivation (in words): 20 ng/ml to 50 μg/ml
Description: Mouse motoneuron-like cells NCS-34 were cultured in DMEM (Gibco) supplemented with 10% heat inactivated FBS and 1% penicillin/streptomycin. The cell culture was maintained in a humidified atmosphere of 95% air and CO2 at 37° C.
The nutritional deprivation stress in motorneurons was conducted as described previously in Masahito T. et al., J. Neuropathol. Exp. Neurol. 65(8):816-825 (2006). To assess the effect of trophic stress condition on ALS, the presence of apoptosis was investigated using serum deprivation. NSC-34 cells were seeded in 24-well poly-lysinated plates at 30,000 cells/well and preincubated for 24 h in DMEM plus 10% FBS with various doses of G79, G80, and G81 (20 ng/ml, 100 ng/ml, 2 μg/ml, 20 μg/ml, 50 μg/ml), and G-CSF (2 μg/ml) or BDNF (20 ng/ml) which both were used as positive controls (Masahito T. et al., ibid; Elliot J. L., Neurobiology of Disease 6:310-320 (1999)). Then, the medium was removed and replaced with fresh DMEM without FBS. After 48 h, cell viability was assayed by MTT assay, as described previously.

PC12 cells [1] = test: Synergistic activity assay (PC12 differentiation in combination with NGF); format: cell-based; details: 100 ng/ml in combination with NGF 100 ng/ml
Description: To evaluate if the small molecules G79, G80, and G81 interfere with the maximal activity of NGF or lead to additive effects, PC12 cells were plated into collagen-coated 24-wells plates with 2.5% FBS and treated after 72 h with the small chemicals (each one at 100 ng/ml) in combination with NGF at the concentration of 100 ng/ml. In the same experiment PC12 cells were treated with the small molecules or NGF alone, as controls. The number of differentiated cells was evaluated after three days of treatment. The cell count was done in three randomly selected fields with 100 cells.

PC12 cells [2] = test: Dose response differentiation assay in PC12 cell line; format: cell-based; details: for number of differentiated cells in a field of 100 cells: after 3 days of treatment; for number of differentiated cells above the best working concentration: G79 at 50 μg/ml, G81 at concentrations higher than 100 ng/ml; for differentiation of PC12 cells (in words): compared to control PC12 untreated cells; for best working concentration for PC12 differentiation: tested 2-20-100 ng/ml and 2-20-50 μg/ml
Description: Stock of PC12 cultures were maintained in Ham's F12 medium supplemented with 2.5% fetal bovine serum (FBS), 15% of horse serum (HS) and 1% penicillin/streptomycin. The cell culture was maintained in 5% CO2 at 37° C.
PC12 cell differentiation was assessed by treating the cells with all the test compounds (G79, G80, and G81) at different testing concentration (2-20-100 ng/ml and 2-20-50 μg/ml). The cells were first plated into collagen-coated 24-wells plates with 2.5% FBS in the medium to be de-differentiated. After 72 hrs, the test compounds were added and NGF (Sigma Aldrich; 100 ng/ml) as positive control of differentiation. The number of differentiated cells, with neurite processes greater than two cell bodies in length, is counted after 3 days of treatment. The cell count is done in three randomly selected fields with 100 cells.

SH-SY5Y cells = test: cells; format: cell-based, human; details: for protective effect against H2O2 oxidative stress (in words): H2O2 100 μM, 20 ng/ml to 50 μg/ml
Description: The cells were pre-treated for 3 hours with the test compounds at different concentrations (20 ng/ml, 100 ng/ml, 2 μg/ml, 20 μg/ml and 50 μg/ml) or BDNF (20 ng/ml) as a positive control. Then H2O2 (100 μM) was added and incubated for 24 hrs. The number of surviving cells was determined by MTT assay. […] In FIG. 5B, BDNF cell viability has been considered as the 100%. The H2O2 stress induced a decrease in the percentage of cell viability (no stress Ctr vs H2O2 stress=100±2% vs 95.9±0.5%). G79, compared to G80 and G81, is the one that exerted better protection, at the concentration of 20 ng/ml (BDNF vs G79=100±2.6 vs 107.4±5.8).

PC12 cells [3] = test: Signalling inhibition assays (PC12 differentiation with LY294002 or PD98059); format: cell-based
Description: To evaluate if the transduction pathway induced by G79, G80, and G81 involves AKT and ERK activation, PC12 cell were treated with the test compounds in the presence of LY294002, an inhibitor of PI3K (an upstream activator of AKT) and PD98059, an inhibitor of MAPK kinase (an upstream activator of ERK). For this purpose, PC12 cells were plated into collagen-coated 24-wells plates with 2.5% FBS and after 72 hrs the cells were treated with the small molecules in combination with LY294002 (Sigma Aldrich, 10 μM) or PD98059 (Sigma Aldrich, 50 μM). NGF (100 ng/ml) was used as control and added alone or in combination with the inhibitors.

RN22 cells = test: Survival assay in RN22 cells under CuSO4 oxidative stress (MTT); format: cell-based, rat; details: for cell viability of RN22 (in words): 1-10-50 ng/ml and 1-10 μg/ml, CuSO4 stress; for best working concentration for RN22 cell viability: tested 1-10-50 ng/ml and 1-10 μg/ml; for viability at 0.05 µg/mL: 50 ng/ml
Description: The rat schwannome cell line RN22 was cultured in Dulbecco's modified Eagle's medium (DMEM) with 10% FBS and 1% penicillin/streptomycin. The cell culture was maintained in 5% CO2 at 37° C.
RN22 were plated into 24-wells plates at the concentration of 30.000 cells/well in medium without serum. After 24 h, the test compounds G79, G80, and G81 were added at different concentrations (1-10-50 ng/ml and 1-10 μg/ml) and NGF was used as positive control of survival. The cells were so incubated for 2 hrs. Oxidative stress was induced with copper sulphate (CuSO4) at the final concentration of 150 μg/ml. After over-night incubation cell viability was determined by reading the absorbance after adding MTT (Sigma Aldrich).

PC12 cells [4] = test: Secretagogue activity assay (PC12 differentiation with antibody anti-NGF); format: cell-based
Description: To assess if the tested compounds, G79, G80, and G81, act as secretagogues, inducing neurotrophic activity through the synthesis of NGF, PC12 cells were plated into collagen-coated 24-wells plates with only 2.5% FBS and after 72 hrs the cells were treated with the tested compounds (each one at 100 ng/ml) together with antibody anti-NGF (1 μg/ml, AbCam). After three days of treatment, the differentiation was evaluated. The cell count was done in three randomly selected fields with 100 cells.

in vitro = details: rat (astrocytes)
[5] = plus LY294002 (10 μM), inhibitor of PI3K
[6] = plus PD98059 (50 μM), inhibitor of MAPK kinase
[7] = 100 ng/ml together with antibody anti-NGF (1 μg/ml)
[8] = Rattus norvegicus, RN 22, CuSO4 150 μg/ml, read-out: cell viability, as % relative to the no-stress control

Row | SMILES | neuroprotection on motorneurons challenged with serum deprivation (in words) (NSC-34 cells) | number of differentiated cells (PC12 cells [1]) | number of differentiated cells above the best working concentration (PC12 cells [2]) | differentiation of PC12 cells (in words) (PC12 cells [2]) | best working concentration for PC12 differentiation (PC12 cells [2]) | protective effect against H2O2 oxidative stress (in words) (SH-SY5Y cells) | number of differentiated cells (PC12 cells [3]; [5]) | number of differentiated cells (PC12 cells [3]; [6]) | number of differentiated cells (PC12 cells [3]; treatment alone) | cell viability of RN22 (in words) (RN22 cells) | best working concentration for RN22 cell viability (RN22 cells) | number of differentiated cells for each field (PC12 cells [4]; [7]) | number of differentiated cells for each field (PC12 cells [4]; 100 ng/ml, treatment alone) | Papp (in vitro) | viability at 0.05 µg/mL (RN22 cells; [8]) | other results
1 | CC(C)CN(CC(=O)N(CCCN1CCCC1=O)CC(N)=O)C(=O)CNCCc1ccccc1F [Compound G79, [N-(2-(2′-Fluorophenyl)ethyl)glycyl]-[N-(2-methylpropyl)glycyl]-N-[3-(2′-oxopyrrolidinyl)propyl]glycinamide] | exerted neuroprotection | 11.3±2.6 | decreases | induce the differentiation of PC12 cells | 20000 ng/mL | protective effect | 5.28±2.54 | 3.1±1.06 | 11.5±2.8 | increased cell viability at all tested concentrations | 10 ng/mL | 18.8±4.9 | 11.5±2.8 | 4.1 ×10⁻⁶ cm/s |  | viability at 0.1 µg/mL (NSC-34 cells; Mus musculus, NSC-34, 100 ng/ml, serum deprivation 48 h, read-out: cell viability, percentage relative to the control without stress): 98.1 ± 6.14%; concentration of the best neuroprotective effect (NSC-34 cells; serum deprivation): 100 ng/mL; number of differentiated cells in a field of 100 cells (PC12 cells [2]; 20 μg/ml): 11.3±2.68 cells; viability at 0.02 µg/mL (SH-SY5Y cells; Homo sapiens, SH-SY5Y, 24 h, read-out: cell viability, BDNF cell viability considered as the 100%): 107 ± 5.8%; viability at 0.01 µg/mL (RN22 cells; Rattus norvegicus, RN 22, 10 ng/ml, CuSO4 150 μg/ml, read-out: cell viability, as % relative to the no-stress control): 98.1%
2 | CC(C)CN(CC(=O)N(CCc1ccc(S(N)(=O)=O)cc1)CC(N)=O)C(=O)CNCCc1ccccc1F [Compound G80, [N-(2-(2′-Fluorophenyl)ethyl)glycyl]-[N-(2-methylpropyl)glycyl]-N-[2-(4′-sulfamoylphenyl)ethyl]glycinamide] | exerted neuroprotection | 13±5.9 |  | induce the differentiation of PC12 cells; also recorded: good differentiation with very long neurites | 20 ng/mL | protective effect | 8.5±2.6 | 4±2.3 | 15.1±6.3 | increased cell viability at all tested concentrations | 50 ng/mL | 14.1±1.8 | 15.1±6.3 | 2.8 ×10⁻⁶ cm/s | 99.9% | 
3 | CC(C)CN(CC(=O)N(CCc1ccc(S(N)(=O)=O)cc1)CC(N)=O)C(=O)CNCCN1CCCC1 [Compound G81, [N-(2-(1-Pyrrolidinyl)ethyl)glycyl]-[N-(2-methylpropyl)glycyl]-N-[2-(4′-sulfamoylphenyl)ethyl]glycinamide] | exerted neuroprotection | 13.3±3.8 | decreases | induce the differentiation of PC12 cells; also recorded: significant differentiation | 100 ng/mL | protective effect | 6.6±4.02 | 1.6±1.1 | 14.1±3.3 | increased cell viability at all tested concentrations | 50 ng/mL | 15.5±4.1 | 14.1±3.3 | 2.1 ×10⁻⁶ cm/s | 102% | number of differentiated cells in a field of 100 cells (PC12 cells [2]; 100 ng/ml): 9.2±3.9 cells
